# Columns and labels:
# Type in all cases: cell-based
# MDCK cell nucleus = assay: IP3 generation in the MDCK cell nucleus with nuclear-localized probe; conditions: 100 μM ATP stimulation, probe with nuclear localization sequence in nucleus, FIG. 4
# Text: The probe was linked with the nuclear localization sequence of SEQ ID NO: 4 at the C terminal thereof, and expressed in MDCK cell.
# [1] = test system: purine receptor of the MDCK cell; assay: ATP-dependent IP3 generation in MDCK cells visualized with the probe
# Procedure: FIG. 2 is visualization of ATP-dependent IP3 generation in MDCK cells using the probe of this invention. (a), 100 μM ATP; (b), […]; and (c), 1 μM ATP.
# (§1) cDNA encoding a probe for IP3 detection and quantification (FIG. 1) was prepared by a genetic engineering method, and introduced into MDCK cell. Expression of the probe in the cytoplasm was confirmed since fluorescence was observed from the cells with a fluorescence microscope.
# An increase in fluorescence intensity ratio (CFP/YFP) was observed by stimulating a purine receptor of the MDCK cell as obtained in Example 1 with 100 μM ATP (FIG. 2a).
# [2] = test system: neuron prepared from hippocampus of a rat embryo; assay: IP3 kinetics in neuron expressing the probe on glutamate stimulation; conditions: 20 μM glutamate stimulation, cell body and dendrites, FIG. 3
# Text: The probe was expressed in a neuron prepared from hippocampus of a rat embryo, and IP3 kinetics in the neuron was observed.
# [3] = target: T1, probe for IP3 detection and quantification expressed in MDCK cell (Homo sapiens, UniProt Q14643); assay: IP3 microinjection into MDCK cell expressing the FRET probe; conditions: each introduction of a small amount of IP3 by microinjection
# T1 construct: a region from 224th amino acid to 579th amino acid of the type 1 IP3 receptor; expressed in transfected cells; host or cells: MDCK cells
# T1 sequence (Q14643 224-579): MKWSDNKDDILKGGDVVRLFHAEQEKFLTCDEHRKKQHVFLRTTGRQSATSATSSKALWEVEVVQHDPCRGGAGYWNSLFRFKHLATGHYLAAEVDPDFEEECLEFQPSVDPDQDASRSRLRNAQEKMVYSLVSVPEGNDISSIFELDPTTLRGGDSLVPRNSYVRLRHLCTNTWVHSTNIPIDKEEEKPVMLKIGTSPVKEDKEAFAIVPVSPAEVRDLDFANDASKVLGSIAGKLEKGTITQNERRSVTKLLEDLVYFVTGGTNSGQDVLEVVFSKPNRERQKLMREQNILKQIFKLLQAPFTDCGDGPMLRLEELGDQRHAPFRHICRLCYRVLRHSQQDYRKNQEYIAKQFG
# Procedure: as §1
# Into the MDCK cell expressing the probe as obtained in Example 1, IP3 was introduced by a microinjection method.
structure (smiles),measurement,setting,value
Nc1ncnc2c1ncn2[C@@H]1O[C@H](COP(=O)(O)OP(=O)(O)OP(=O)(O)O)[C@@H](O)[C@H]1O [ATP],IP3 concentration,MDCK cell nucleus,temporally increased
same,response of the probe,"[1]; 1 μM ATP stimulation, FIG. 2c",a response of the probe was also observed depend on ATP concentration
same,response of the probe,"[1]; 10 μM ATP stimulation, FIG. 2b",a response of the probe was also observed depend on ATP concentration
same,fluorescence intensity ratio (CFP/YFP),"[1]; 100 μM ATP stimulation, FIG. 2a",increase
N[C@@H](CCC(=O)O)C(=O)O [glutamate],IP3 concentration,[2],temporally increased in not only the cell body but also the dendrites
"O=P(O)(O)O[C@@H]1[C@H](O)[C@H](O)[C@@H](OP(=O)(O)O)[C@H](OP(=O)(O)O)[C@H]1O [IP3, Inositol-1,4,5-trisphosphate]",CFP/YFP fluorescence intensity ratio,[3],stepwise increased and saturated soon
